Measured values from US20040077624A1, “Novel combination” (Pfizer Inc., priority 2002, published 2004).

Test system: spontaneously hypertensive rat (SHR)
Test: Animal study: haemodynamic parameters in spontaneously hypertensive rats under continuous infusion
Format: in vivo
Conditions: male SHR; continuous infusion 0.4 mL/h over 4 days; enalapril 7.5 μg/mL, PDE5 inhibitor 200 μg/mL; difference from the vehicle response
Protocol: The spontaneously hypertensive rat (SHR) is a widely used model of human hypertension. Male SHRs (20-22 weeks old) were instrumented with Doppler flow probes for the measurement of mesenteric, hindquarters and renal blood flow, aortic blood pressure and heart rate according to published methods (Gardiner, S M et al.; Br. J. Pharmacol. 132(8), 1625-1629, 2001).
Solutions of enalapril (7.5 μg/mL), PDE5 inhibitor (200μg/mL) and a combination of enalapril and PDE5 inhibitor (7.5μg/mL+200 μg/mL) were infused at a rate of 0.4 mL/h throughout the experimental period. Control animals received compound vehicle; isotonic saline adjusted to pH 4 with hydrochloric acid.
Baseline haemodynamic parameters were recorded. Animals (n=7 or 8/group) were randomised then treated with the drug solution by continuous infusion over 4 days. Changes in haemodynamic parameters were monitored during the study period for 7h on each day.

SMILES	Change in aortic conductance	Change in mesenteric conductance	Change in renal conductance	Overall change in mean BP [mmHg]
CCc1c2nc(-c3cc(S(=O)(=O)N4CCN(CC)CC4)cnc3OCCOC)[nH]c(=O)c2nn1Cc1ccccn1 [PDE5 inhibitor, 3-ethyl-5-[5-(4-ethylpiperazin-1-ylsulphonyl)-2-(2-methoxyethoxy)pyridin-3-yl]-2-(pyridin-2-yl)methyl-2,6-dihydro-7H-pyrazolo[4,3-d]pyrimidin-7-one]	+19.8%	+22.1%	−0.8%	−12.1
CCOC(=O)[C@H](CCc1ccccc1)N[C@@H](C)C(=O)N1CCC[C@H]1C(=O)O [Enalapril, enalapril]	+3.7%	+22.4%	+14.2%	−2.4
